Reference: PubChem BioAssay (NCI)
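Cultured in 96-well plates, cells were exposed to test compound for 48 hours across five concentrations. TGI: concentration producing complete growth inhibition.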

Tests used:
Assay in all cases: NCI-60 cell line screen, 48 h
[1] = tested on: SF-539 CNS
[2] = tested on: NCI-H460 lung
[3] = tested on: KM12 colon
[4] = tested on: TK-10 renal
[5] = tested on: K-562 leukemia
[6] = tested on: A549 NSCLC
[7] = tested on: LXFL 529 NSCLC
[8] = tested on: DMS 114 small cell lung
[9] = tested on: MALME-3M melanoma
[10] = tested on: CCRF-CEM leukemia
[11] = tested on: U251 CNS
[12] = tested on: OVCAR-4 ovarian
[13] = tested on: SF-295 CNS
[14] = tested on: SNB-78 CNS
[15] = tested on: UO-31 renal
[16] = tested on: SF-268 CNS
[17] = tested on: NCI-H23 lung
[18] = tested on: DLD-1 colon
[19] = tested on: SK-MEL-5 melanoma
[20] = tested on: HCC-2998 colon
[21] = tested on: OVCAR-3 ovarian
[22] = tested on: 786-0 renal
[23] = tested on: SK-MEL-2 melanoma
[24] = tested on: HCT-15 colon
[25] = tested on: IGROV1 ovarian
[26] = tested on: OVCAR-5 ovarian
[27] = tested on: SNB-19 CNS
[28] = tested on: HCT-116 colon
[29] = tested on: LOX IMVI melanoma
[30] = tested on: SNB-75 CNS
[31] = tested on: A498 renal
[32] = tested on: DMS 273 small cell lung
[33] = tested on: M14 melanoma
[34] = tested on: RXF-631 renal
[35] = tested on: CAKI-1 renal
[36] = tested on: HOP-18 NSCLC
[37] = tested on: UACC-257 melanoma
[38] = tested on: COLO 205 colon
[39] = tested on: SW-620 colon
[40] = tested on: HOP-92 NSCLC
[41] = tested on: SN12C renal
[42] = tested on: KM20L2 colon
[43] = tested on: SK-MEL-28 melanoma
[44] = tested on: HOP-62 NSCLC
[45] = tested on: HL-60(TB) leukemia
[46] = tested on: HT29 colon
[47] = tested on: UACC-62 melanoma
[48] = tested on: MOLT-4 leukemia
[49] = tested on: RPMI-8226 leukemia
[50] = tested on: NCI-H226 lung
[51] = tested on: RXF 393 renal
[52] = tested on: OVCAR-8 ovarian
[53] = tested on: NCI-H522 lung
[54] = tested on: ACHN renal
[55] = tested on: SR leukemia
[56] = tested on: SK-OV-3 ovarian
[57] = tested on: M19-MEL melanoma
[58] = tested on: EKVX NSCLC

## O=c1c(O)c(-c2ccccc2)n(O)c2ccc(Cl)cc12
[1]
  TGI: 48 µM
[2]
  TGI: 69.2 µM
[3]
  TGI: 80.9 µM
[4]
  TGI: 72.3 µM
[5]
  TGI: > 100 µM
[6]
  TGI: > 100 µM
[7]
  TGI: 64 µM
[8]
  TGI: 54.9 µM
[9]
  TGI: > 100 µM
[10]
  TGI: > 100 µM
[11]
  TGI: > 100 µM
[12]
  TGI: > 100 µM
[13]
  TGI: > 100 µM
[14]
  TGI: > 100 µM
[15]
  TGI: > 100 µM
[16]
  TGI: > 100 µM
[17]
  TGI: > 100 µM
[18]
  TGI: > 100 µM
[19]
  TGI: 42.1 µM
[20]
  TGI: 40.1 µM
[21]
  TGI: > 100 µM
[22]
  TGI: > 100 µM
[23]
  TGI: 58.6 µM
[24]
  TGI: 49.6 µM
[25]
  TGI: 89.9 µM
[26]
  TGI: 95.3 µM
[27]
  TGI: > 100 µM
[28]
  TGI: 24.6 µM
[29]
  TGI: 27.2 µM
[30]
  TGI: 80.8 µM
[31]
  TGI: 78.4 µM
[32]
  TGI: 58.6 µM
[33]
  TGI: > 100 µM
[34]
  TGI: > 100 µM
[35]
  TGI: 71.1 µM
[36]
  TGI: > 100 µM
[37]
  TGI: > 100 µM
[38]
  TGI: > 100 µM
[39]
  TGI: 34.5 µM
[40]
  TGI: 96.5 µM
[41]
  TGI: 49.8 µM
[42]
  TGI: 83.9 µM
[43]
  TGI: > 100 µM
[44]
  TGI: 60.3 µM
[45]
  TGI: 62.8 µM
[46]
  TGI: > 100 µM
[47]
  TGI: 55.3 µM
[48]
  TGI: > 100 µM
[49]
  TGI: > 100 µM
[50]
  TGI: 45.1 µM
[51]
  TGI: 63 µM
[52]
  TGI: 52.1 µM
[53]
  TGI: 51.7 µM
[54]
  TGI: 74 µM
[55]
  TGI: > 100 µM
[56]
  TGI: 78.6 µM

## COC1=CC(=C(C#N)C(=Nc2ccccc2)SC)C=C(OC)C1=O
[1]
  TGI: > 100 µM
[2]
  TGI: > 100 µM
[3]
  TGI: > 100 µM
[4]
  TGI: > 100 µM
[5]
  TGI: 63.1 µM
[6]
  TGI: > 100 µM
[7]
  TGI: 36.2 µM
[9]
  TGI: > 100 µM
[10]
  TGI: 43.5 µM
[11]
  TGI: 2.62 µM
[57]
  TGI: > 100 µM
[13]
  TGI: > 100 µM
[14]
  TGI: > 100 µM
[15]
  TGI: > 100 µM
[17]
  TGI: > 100 µM
[18]
  TGI: 77.3 µM
[19]
  TGI: 42.7 µM
[20]
  TGI: > 100 µM
[58]
  TGI: > 100 µM
[21]
  TGI: > 100 µM
[22]
  TGI: > 100 µM
[24]
  TGI: > 100 µM
[25]
  TGI: > 100 µM
[28]
  TGI: > 100 µM
[29]
  TGI: > 100 µM
[30]
  TGI: > 100 µM
[31]
  TGI: 80 µM
[32]
  TGI: > 100 µM
[34]
  TGI: > 100 µM
[35]
  TGI: > 100 µM
[36]
  TGI: > 100 µM
[37]
  TGI: > 100 µM
[38]
  TGI: > 100 µM
[39]
  TGI: > 100 µM
[40]
  TGI: 9.97 µM
[41]
  TGI: > 100 µM
[43]
  TGI: > 100 µM
[46]
  TGI: > 100 µM
[47]
  TGI: > 100 µM
[48]
  TGI: 53.1 µM
[49]
  TGI: 52.2 µM
[51]
  TGI: 78 µM
[52]
  TGI: > 100 µM
[53]
  TGI: > 100 µM
[54]
  TGI: > 100 µM
[56]
  TGI: > 100 µM

## CCOCc1cc(=O)c2c(O)cc3c(c2o1)CCC(C)(C)O3
[1]
  TGI: > 100 µM
[2]
  TGI: > 100 µM
[4]
  TGI: > 100 µM
[5]
  TGI: > 100 µM
[7]
  TGI: > 100 µM
[8]
  TGI: > 100 µM
[9]
  TGI: > 100 µM
[10]
  TGI: > 100 µM
[11]
  TGI: > 100 µM
[57]
  TGI: > 100 µM
[13]
  TGI: > 100 µM
[14]
  TGI: > 100 µM
[15]
  TGI: > 100 µM
[16]
  TGI: > 100 µM
[17]
  TGI: > 100 µM
[18]
  TGI: > 100 µM
[19]
  TGI: > 100 µM
[58]
  TGI: > 100 µM
[21]
  TGI: > 100 µM
[23]
  TGI: > 100 µM
[24]
  TGI: > 100 µM
[25]
  TGI: > 100 µM
[27]
  TGI: > 100 µM
[29]
  TGI: > 100 µM
[30]
  TGI: > 100 µM
[31]
  TGI: > 100 µM
[32]
  TGI: > 100 µM
[33]
  TGI: > 100 µM
[34]
  TGI: > 100 µM
[35]
  TGI: > 100 µM
[36]
  TGI: > 100 µM
[38]
  TGI: > 100 µM
[39]
  TGI: > 100 µM
[40]
  TGI: > 100 µM
[41]
  TGI: > 100 µM
[42]
  TGI: > 100 µM
[43]
  TGI: > 100 µM
[45]
  TGI: > 100 µM
[46]
  TGI: > 100 µM
[47]
  TGI: > 100 µM
[48]
  TGI: > 100 µM
[49]
  TGI: > 100 µM
[50]
  TGI: > 100 µM
[52]
  TGI: > 100 µM
[53]
  TGI: > 100 µM
[54]
  TGI: > 100 µM
[56]
  TGI: > 100 µM
